Measured values: patent US4252898A
In brackets after ≈: the same amount, converted by molar mass.

Tests used:
[1] = system: Actinomyces israelii W855; assay: Susceptibility of anaerobic bacterial isolates, agar dilution; assay type: cell-based; conditions: 27 hours incubation
[2] = system: Clostridium perfringens 81; assay: microbe, parasite or virus in culture; assay type: cell-based; conditions: Clostridium perfringens, 81, 27 h
[3] = system: Clostridium septicum 1128; assay: Susceptibility of anaerobic bacterial isolates, agar dilution; assay type: cell-based; conditions: 27 hours incubation
[4] = system: Eubacterium aerofaciens 1235; assay: as above; assay type: cell-based; conditions: Collinsella aerofaciens, 27 hours incubation
[5] = system: Peptococcus asaccharolyticus 1302; assay: as above; assay type: cell-based; conditions: Peptoniphilus asaccharolyticus, 27 hours incubation
[6] = system: Peptococcus prevoti 1281; assay: as above; assay type: cell-based; conditions: 27 hours incubation
[7] = system: Peptostreptococcus anaerobius 1428; assay: as above; assay type: cell-based; conditions: 27 hours incubation
[8] = system: Peptostreptococcus intermedium 1264; assay: as above; assay type: cell-based; conditions: 27 hours incubation
[9] = system: Propionibacterium acnes 79; assay: as above; assay type: cell-based; conditions: Cutibacterium acnes, 27 hours incubation
[10] = system: Bacteroides fragilis spp. fragilis 111; assay: as above; assay type: cell-based; conditions: 27 hours incubation
[11] = system: Bacteroides fragilis ssp. fragilis 1877; assay: as above; assay type: cell-based; conditions: 27 hours incubation
[12] = system: Bacteroides fragilis ssp. fragilis 1936B; assay: as above; assay type: cell-based; conditions: 27 hours incubation
[13] = system: Bacteroides fragilis ssp. thetaiotaoimicron 1438; assay: as above; assay type: cell-based; conditions: 27 hours incubation
[14] = system: Bacteroides melaninogenicus 1856/28; assay: as above; assay type: cell-based; conditions: Prevotella intermedia, 27 hours incubation
[15] = system: Bacteroides melaninogenicus 2736; assay: as above; assay type: cell-based; conditions: 27 hours incubation
[16] = system: Bacteroides vulgatis 1211; assay: as above; assay type: cell-based; conditions: 27 hours incubation
[17] = system: Bacteroides corrodens 1874; assay: as above; assay type: cell-based; conditions: Eikenella corrodens, 27 hours incubation
[18] = system: Fusobacterium symbiosum 1470; assay: as above; assay type: cell-based; conditions: 27 hours incubation
[19] = system: Fusobacterium necrophorum 6054A; assay: as above; assay type: cell-based; conditions: 27 hours incubation
[20] = system: S. Aureus (3 strains); assay: Disc-plate test; conditions: Staphylococcus aureus, read-out: Disc-Plate Zone Sizes
[21] = system: S. pyogenes C203; assay: Disc-plate test; conditions: Streptococcus pyogenes, C203, read-out: Disc-Plate Zone Sizes
[22] = system: Group D Streptococcus; assay: Disc-plate test; conditions: read-out: Disc-Plate Zone Sizes
[23] = system: S. pneumoniae I; assay: Disc-plate test; conditions: Streptococcus pneumoniae, read-out: Disc-Plate Zone Sizes
[24] = system: E. coli Ec-14; assay: Disc-plate test; conditions: Escherichia coli, EC14, read-out: Disc-Plate Zone Sizes
[25] = system: P rettgeri PR-2; assay: Disc-plate test; conditions: read-out: Disc-Plate Zone Sizes
[26] = system: K. pneumoniae KL-14; assay: Disc-plate test; conditions: Klebsiella pneumoniae, KL14, read-out: Disc-Plate Zone Sizes
[27] = system: S. typhosa SA-12; assay: Disc-plate test; conditions: read-out: Disc-Plate Zone Sizes
[28] = system: S. aureus 3.55; assay: Agar-dilution test; conditions: Staphylococcus aureus
[29] = system: S. aureus 3074; assay: Agar-dilution test; conditions: Staphylococcus aureus
[30] = system: S. faecalis X-66; assay: Agar-dilution test; conditions: Enterococcus faecalis, X66
[31] = system: S. aureus 3055; assay: Therapy in experimental mouse infections; conditions: Staphylococcus aureus, 3055, in Mus musculus
[32] = system: S. pyogenes C203; assay: Therapy in experimental mouse infections; conditions: Streptococcus pyogenes
[33] = system: gram positive bacteria; assay: Antibacterial activity in standard test procedures
[34] = system: S. pneumoniae I; assay: Therapy in experimental mouse infections; conditions: Streptococcus pneumoniae
[35] = system: NRRL 11459; assay: Inhibitor sensitivity of the producing strain (inhibitor in ISP #2 agar); assay type: cell-based, Streptomyces flocculus; conditions: NRRL 11459, ISP #2 agar plates
Protocol: (§1) The cell wall sugars are determined using a modification of the procedure of M. Lechevalier, "Chemical Methods as Criteria for the Separation of Actinomycetes Into Genera", workshop sponsored by the subcommittee on Actionomycetes of the American Society of Microbology, Dr. Thoman G. Pridham, Convenor, held at the Institute of Microbology, Rutgurs University, New Brunswick, N.J., 1971. The isomer of diaminopimelic acid is determined using the method of B. Becker Appl. Microbiol., 11 421 ([…]). Amino acid analysis is determined with washed cell wall fragments. Melanoid pigments are determined using ISP #6 (peptone-yeast extract iron agar) and ISP #7 (tyrosine agar). Inhibitors are tested by incorporating varing concentrations of inhibitors into ISP #2 agar plates and streaking the culture on the surface. Starch hydrolysis is determined by testing for the presence of starch with iodine on ISP #4 agar plates. Temperature range, NaCl tolerance, pH range, and antibiotic sensitivity are done using ISP #2 agar medium. The range of temperatures are: 25°, 28°, 30°, 34°, 37°, 40°, 45°, 50°, 55° C. NaCl tolerance is measured by adding NaCl to the agar to equal: 0, 1, 2, 3, 4, 5, 6, 8, 10, 12% and incubating at 30° C. for 7 days. Antibiotic sensitivity is determined using sensitivity discs padded onto seeded agar plates of ISP #2 medium and incubating at 30° C. for 14 days.

[36] = system: NRRL 11459; assay: Antibiotic sensitivity of the producing strain (sensitivity discs on seeded ISP #2 agar); assay type: cell-based, Streptomyces flocculus; conditions: 30° C., 14 days; also: key: +: sensitive (zones of inhibition); -: resistat (no zones of inhibition)
Protocol: as §1

CCC1OC(=O)CC(O)C(C)C(OC2OC(C)C(OC3CCC(O)C(C)O3)C(N(C)C)C2O)C(CC=O)CC(C)C(=O)C=CC2(C)OC2C1C (centres unmarked)
MIC [1]: 4 µg/mL (≈ 5.62 µM) | MIC [2]: 2 µg/mL (≈ 2.81 µM) | MIC [3]: 2 µg/mL (≈ 2.81 µM) | MIC [4]: 2 µg/mL (≈ 2.81 µM) | MIC [5]: 2 µg/mL (≈ 2.81 µM) | MIC [6]: 32 µg/mL (≈ 45 µM) | MIC [7]: 2 µg/mL (≈ 2.81 µM) | MIC [8]: 16 µg/mL (≈ 22.5 µM) | MIC [9]: 2 µg/mL (≈ 2.81 µM) | MIC [10]: 64 µg/mL (≈ 89.9 µM) | MIC [11]: 16 µg/mL (≈ 22.5 µM) | MIC [12]: 32 µg/mL (≈ 45 µM) | MIC [13]: 8 µg/mL (≈ 11.2 µM) | MIC [14]: 64 µg/mL (≈ 89.9 µM) | MIC [15]: 32 µg/mL (≈ 45 µM) | MIC [16]: 8 µg/mL (≈ 11.2 µM) | MIC [17]: 32 µg/mL (≈ 45 µM) | MIC [18]: 4 µg/mL (≈ 5.62 µM) | MIC [19]: 16 µg/mL (≈ 22.5 µM) | zone of inhibition at 100 µg/disc [20]: 24 mm | zone of inhibition at 100 µg/disc [21]: 20 mm | zone of inhibition at 100 µg/disc [22]: 20 mm | zone of inhibition at 100 µg/disc [23]: 35 mm | zone of inhibition at 100 µg/disc [24]: 10.2 mm | zone of inhibition at 100 µg/disc [25]: 8 mm | zone of inhibition at 100 µg/disc [26]: 0 mm | zone of inhibition at 100 µg/disc [27]: 9.9 mm | MIC [28]: 1 µg/mL (≈ 1.4 µM) | MIC [29]: 2 µg/mL (≈ 2.81 µM) | MIC [30]: 4 µg/mL (≈ 5.62 µM) | ED50 [31]: 5 mg/kg | ED50 [32]: 4.65 mg/kg | antibacterial activity [33]: exhibit antibacterial activity, particularly against gram positive bacteria

CCC1OC(=O)CC(O)C(C)C(OC2OC(C)C(OC3CCC(O)C(C)O3)C(N(C)C)C2O)C(CCO)CC(C)C(=O)C=CC2(C)OC2C1C (centres unmarked)
MIC [1]: 8 µg/mL (≈ 11.2 µM) | MIC [2]: 16 µg/mL (≈ 22.4 µM) | MIC [3]: 16 µg/mL (≈ 22.4 µM) | MIC [4]: 8 µg/mL (≈ 11.2 µM) | MIC [5]: 8 µg/mL (≈ 11.2 µM) | MIC [6]: > 64 µg/mL | MIC [7]: 16 µg/mL (≈ 22.4 µM) | MIC [8]: 8 µg/mL (≈ 11.2 µM) | MIC [9]: 1 µg/mL (≈ 1.4 µM) | MIC [10]: 64 µg/mL (≈ 89.6 µM) | MIC [11]: 64 µg/mL (≈ 89.6 µM) | MIC [12]: 64 µg/mL (≈ 89.6 µM) | MIC [13]: 16 µg/mL (≈ 22.4 µM) | MIC [14]: 64 µg/mL (≈ 89.6 µM) | MIC [15]: 64 µg/mL (≈ 89.6 µM) | MIC [16]: 32 µg/mL (≈ 44.8 µM) | MIC [17]: 32 µg/mL (≈ 44.8 µM) | MIC [18]: 128 µg/mL (≈ 179 µM) | MIC [19]: 128 µg/mL (≈ 179 µM) | zone of inhibition at 300 µg/disc [20]: 27 mm | zone of inhibition at 300 µg/disc [21]: 24.2 mm | zone of inhibition at 300 µg/disc [22]: 22.5 mm | zone of inhibition at 300 µg/disc [23]: 36 mm | zone of inhibition at 300 µg/disc [24]: 14 mm | zone of inhibition at 300 µg/disc [25]: 8.6 mm | zone of inhibition at 300 µg/disc [26]: 11.3 mm | zone of inhibition at 300 µg/disc [27]: 8.8 mm | MIC [28]: 32 µg/mL (≈ 44.8 µM) | MIC [29]: > 128 µg/mL | MIC [30]: 16 µg/mL (≈ 22.4 µM) | ED50 [31]: > 70 mg/kg | ED50 [32]: > 70 mg/kg | ED50 [34]: > 70 mg/kg | antibacterial activity [33]: exhibit antibacterial activity, particularly against gram positive bacteria

O.O.O.O=C([O-])[C@H]([O-])[C@@H]([O-])C(=O)[O-].O=C([O-])[C@H]([O-])[C@@H]([O-])C(=O)[O-].[K+].[K+].[Sb+3].[Sb+3] [Antimony Potassium tartrate]
Inhibitor sensitivity, MIC [35]: 250 µg/mL

O=C([O-])CC(O)(CC(=O)[O-])C(=O)[O-].[Bi+3] [Bismuth Citrate]
Inhibitor sensitivity, MIC [35]: > 500 µg/mL

CN(C)c1ccc(C(=C2C=CC(=[N+](C)C)C=C2)c2ccc(N(C)C)cc2)cc1 [Crystal Violet]
MIC ([35]; NRRL11459, read-out: Inhibitor sensitivity, MIC): 1 µg/mL

CC[C@H]1OC(=O)[C@H](C)[C@@H](O[C@H]2C[C@@](C)(OC)[C@@H](O)[C@H](C)O2)[C@H](C)[C@@H](O[C@@H]2O[C@H](C)C[C@H](N(C)C)[C@H]2O)[C@](C)(O)C[C@@H](C)C(=O)[C@H](C)[C@@H](O)[C@]1(C)O [Erythromycin]
Antibiotic sensitivity ([36]; 15 μg/disc): +

CC(=O)OCC1=C(C(=O)O)N2C(=O)[C@@H](NC(=O)Cc3cccs3)[C@H]2SC1 [Keflin]
Antibiotic sensitivity ([36]; 30 μg/disc): -

CCC[C@@H]1C[C@@H](C(=O)N[C@@H]([C@H]2O[C@H](SC)[C@H](O)[C@@H](O)[C@H]2O)[C@@H](C)O)N(C)C1 [Lincomycin]
Antibiotic sensitivity ([36]; 2 μg/disc): +

C[C@@H]1[C@H](O)[C@@H](C)/C=C/C=C/CC/C=C/C=C/C=C/C=C/C(O[C@H]2O[C@H](C)[C@@H](O)[C@H](N)[C@@H]2O)CC2O[C@](O)(CC(O)C(O)CCC(O)CC(O)CC(O)CC(=O)O[C@H]1C)CC(O)C2C(=O)O (some centres unmarked) [Nystatin]
Antibiotic sensitivity ([36]; 100 units/disc): -
